{"source": "patent US8889662B2", "about": "“Method to alter sex ratios in avian offspring” (University of Georgia Research Foundation, Inc., priority 2009, dated 2014)", "key": {"[1]": {"conditions": "chickens, previous work; cited from earlier work"}, "[2]": {"test_system": "Hyline W-36 and Brown layer hens", "assay": "Example 3: ovulation and oviposition rates after injection, laying hens", "format": "in vivo, chicken", "conditions": "1.5 mg subcutaneously", "method": "Injection treatments were administered to hens subcutaneously in the back of the neck five hours prior to the predicted time of ovulation with one of the following treatments: 0.5 ml of control peanut oil (CONT) or 1.5 mg corticosterone dissolved in 0.5 ml of peanut oil (CORT). Ovulated follicles took 24 h to pass through the remainder of the reproductive tract and were collected at oviposition (FIG. 6). Eggs were also collected on the day prior to injections and were considered the unmanipulated group (UN). […] Eggs were incubated for 10 days at 37.5° C. and 58% relative humidity in a Natureform incubator."}, "[3]": {"test_system": "zebra finch (Taeniopygia guttata)", "assay": "Example 1: offspring sex after a single maternal CORT injection at sex chromosome segregation, zebra finches", "format": "in vivo", "conditions": "20 ug CORT about 19 h after first egg, third egg of sequence, control injected 46%", "method": "This experiment was conducted to determine whether a single injection of CORT at the critical time of sex chromosome segregation is sufficient to skew offspring sex ratios towards females. Female zebra finches were monitored for signs of nest-building and egg-laying. Approximately 19 h following the appearance of the first egg (1 h before sex chromosome segregation), females received one of two treatments: (1) a high dose of CORT (20 ug in 50 ul peanut oil), or (2) a control treatment (50 ul peanut oil). Because oviposition and ovulation are nearly concurrent, ovulation of the second egg took place when the first egg was laid. Thus, the egg that would be affected by our treatment was the third egg in the sequence. Eggs were labeled as they were laid and were collected after 6 d of incubation for molecular sexing analysis as described above. The percentage of females producing male offspring in each group were calculated and compared using chi square analyses. Blood samples were taken from a subset of females 1 h and 2.5 h post injection to verify that the CORT injection did, in fact, elevate circulating maternal CORT concentrations. CORT was quantified using a standard radioimmunoassay and CORT concentrations were log transformed and analyzed using an analysis of variance (ANOVA)."}, "[4]": {"assay": "Example 1: plasma CORT radioimmunoassay after injection, chickens", "format": "in vivo, chicken", "conditions": "hens", "method": "Approximately 19 h following the appearance of a mid-sequence egg, females received one of three treatments: (1) a high dose of CORT (2 mg in 0.5 ml peanut oil), (2) a control treatment (0.5 ml peanut oil), or (3) no injection treatment. The egg corresponding to the next ovulation event was labeled, collected, and incubated at 37° C. for a period of 7 days to allow for embryonic development. Embryos were separated and sexed using PCR based techniques as described above. The percentage of females producing male offspring in each group were calculated and compared using chi square analyses. Also, as described above, blood samples were taken from a subset of females one hour and four hours after injection to verify that the CORT treatment did, in fact, elevate maternal CORT concentrations at the time of meiotic segregation. CORT was quantified using a standard radioimmunoassay and CORT concentrations were log transformed and analyzed using an analysis of variance (ANOVA)."}, "[5]": {"test_system": "zebra finch (Taeniopygia guttata)", "assay": "Example 2: disruption of ovulation, oviposition and embryo development after injection, zebra finches", "format": "in vivo", "conditions": "20 ug injection, relative to control and uninjected groups", "method": "Zebra finch (Taeniopygia guttata) pairs obtained from a breeding colony maintained at The University of Georgia were housed in individual cages and provided feed and water ad libidumn. Birds were kept under a 14 hour (h) light (L):10 h dark (D) light schedule. Egg-laying was monitored daily and eggs marked to record sequence order. Females were injected intraperitoneally after the first or second egg of the clutch was laid with one of three treatments: 20 μg of CORT dissolved in 50 μl peanut oil and 10% ethanol (CORT), 20 μg of progesterone dissolved in […] and 10% ethanol (P), or 50 μl of control peanut oil (C). A fourth set of females received no injection treatment (UN). […] The follicle ovulating 5 hours after injection, was laid approximately 36 hours after injection (FIG. 3). Ovulating follicles exposed to treatments were laid as the 3rd or 4th egg in the sequence (3rd egg if treatment was administered on the day the 1st egg was laid and the 4th egg in the sequence if treatment was administered on the day the 2nd egg was laid). Eggs were allowed to incubate in the nest for 8-12 days prior to collection to allow sufficient embryonic development for DNA extraction and molecular sexing analyses. Occasionally these treatments disrupted the oviposition immediately following the injection. Females that delayed oviposition after treatment were excluded from analysis because it was not possible to determine whether the egg collected the following day was from the ovulation event that occurred immediately following injection or from a delayed oviposition of the follicle ovulated the day prior to injection. Females that delayed oviposition were allowed to complete the clutch after which the treatment was repeated during the next clutch. […] Only 1/10 females treated with progesterone laid successfully. For this reason, progesterone treatments were eliminated from further analyses."}}, "data": [{"compound": "C[C@]12C[C@H](O)[C@H]3[C@@H](CCC4=CC(=O)CC[C@@]43C)[C@@H]1CC[C@@H]2C(=O)CO", "note": "[corticosterone]", "values": [{"measurement": "duration of elevated CORT concentrations following injection", "setting": "[1]", "value": "approximately 90 minutes"}, {"measurement": "effect on ovulation or oviposition rates", "setting": "[2]", "value": "Neither the control nor the corticosterone treatment had an effect on ovulation or oviposition rates"}, {"measurement": "eggs that were male (primary sex ratio)", "setting": "[3]", "value": 71, "unit": "%"}, {"measurement": "circulating CORT concentrations compared to controls", "setting": "[4]; 2 mg CORT in 0.5 ml peanut oil, within one hour of injection, p<0.0001", "value": "significantly increased circulating CORT concentrations"}, {"measurement": "circulating CORT concentrations compared to controls", "setting": "[4]; 2 mg CORT, four hours post-injection", "value": "This difference disappeared"}, {"measurement": "effect on oviposition, ovulation or visible development", "setting": "[5]; listed as CORT", "value": "not more likely to occur"}, {"measurement": "effect on oviposition, ovulation or visible development", "setting": "[5]; listed as Corticosterone", "value": "did not adversely affect oviposition or ovulation"}]}]}
